Source: patent publication US8338443B2, “Chemical compounds” (priority 2006, dated 2012)

Key:
Aedes aegypti = Aedes aegypti (yellow fever mosquito) larvae test; type: in vivo; details: 48 h, L2 larvae in 96-well plates, 2 days, mortality and growth inhibition
Source text: Aedes aegypti (Yellow Fever Mosquito):
10-15 Aedes larvae (L2) together with a nutrition mixture are placed in 96-well microtiter plates. Test solutions at an application rate of 2 ppm are pipetted into the wells. 2 days later, insects were checked for mortality and growth inhibition. The following compounds gave at least 80% control of Aedes aegypti: I-3, II-3, II-7, V-3, XXVII-3, XXVIII-3, XXIX-3, XXXI-3.

Spodoptera littoralis = Spodoptera littoralis (Egyptian cotton leafworm) cotton leaf disc spray test; type: in vivo; details: foliar, 72 h, 200 ppm spray on cotton leaf discs, L1 larvae, mortality, repellent effect, feeding behaviour, growth regulation 3 DAT
Source text: Spodoptera littoralis (Egyptian Cotton Leafworm)
Cotton leaf discs were placed on agar in a 24-well microtiter plate and sprayed with test solutions at an application rate of 200 ppm. After drying, the leaf discs were infested with 5 L1 larvae. The samples were checked for mortality, repellent effect, feeding behaviour, and growth regulation 3 days after treatment (DAT). The following compounds gave at least 80% control of Spodoptera littoralis: I-3, II-3, II-7, V-3, XXVII-3, XXVIII-3, XXIX-3, XXXI-3.

Row | Structure (SMILES) | pest or weed control at 2 ppm (Aedes aegypti) | pest or weed control at 200 ppm (Spodoptera littoralis)
1 | O=C(Nc1ccc2cccnc2c1C1CCN(C/C=C/c2ccc(Cl)cc2)CC1)c1ccnc(Cl)c1 [Compound I-3] | ≥ 80% | ≥ 80%
2 | O=C(Nc1ccc2ncsc2c1C1CCN(C/C=C/c2ccc(Cl)cc2)CC1)c1ccnc(Cl)c1 [Compound V-3] | ≥ 80% | ≥ 80%
3 | O=C(Nc1ccc2scnc2c1C1CCN(C/C=C/c2ccc(Cl)cc2)CC1)c1ccnc(Cl)c1 [II-3, 2-Chloro-N-(4-{1-[(E)-3-(4-chloro-phenyl)-allyl]-piperidin-4-yl}-benzothiazol-5-yl)-isonicotinamide] | ≥ 80% | ≥ 80%
4 | O=C(Nc1ccc2scnc2c1C1CCN(C/C=C/c2ccc(OC(F)(F)F)cc2)CC1)c1ccnc(Cl)c1 [II-7] | ≥ 80% | ≥ 80%
5 | O=C(Nc1ccc2cccnc2c1C1=CCN(C/C=C/c2ccc(Cl)cc2)CC1)c1ccnc(Cl)c1 [XXIX-3] | ≥ 80% | ≥ 80%
6 | O=C(Nc1ccc2cn[nH]c2c1C1CCN(C/C=C/c2ccc(Cl)cc2)CC1)c1ccnc(Cl)c1 [XXVII-3] | ≥ 80% | ≥ 80%
7 | O=C(Nc1ccc2nccnc2c1C1CCN(C/C=C/c2ccc(Cl)cc2)CC1)c1ccnc(Cl)c1 [XXVIII-3] | ≥ 80% | ≥ 80%
8 | Cc1nc2c(C3=CCN(C/C=C/c4ccc(Cl)cc4)CC3)c(NC(=O)c3ccnc(Cl)c3)ccc2s1 [XXXI-3] | ≥ 80% | ≥ 80%
